Measurements reported in patent US20020137929A1, “1 - (3-heterocyclylphenyl) isothiourea, -isourea, -guanidine and -amidine herbicidal agents” (Intellectual Property Department, BASF Aktiengesellschaft, priority 1998, published 2002).

Legend:
ECHCG (Barnyardgrass) = experiment: Postemergence herbicidal evaluation; type: in vivo, Echinochloa crus-galli; conditions: for ECHCG herbicidal rating: postemergence
How it was run: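 Two-week-old seedlings sprayed with compound in 50/50 acetone/water plus 0.5% TWEEN 20, at about 0.0156 to 0.500 kg/ha, nozzle at 40 psi. Kept in greenhouse; rated visually 4-5 weeks after treatment on a 0-9 scale versus control, repeat tests averaged.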

[1] = test system: CHEAL (Lambsquarters, Common); experiment: Preemergence herbicidal evaluation; type: in vivo, Chenopodium album; conditions: rated 4-5 weeks after treatment; for CHEAL rating: preemergence, 0-9 scale
How it was run: (§1)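 Herbicidal effect scored visually, 0-9, at 4 to 5 weeks against a control; compound applied preemergence by aqueous acetone spray to seeded soil at about 0.0156 to 0.500 kg/ha.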

ORYSAT (Rice, Tebonnet) = experiment: Preemergence herbicidal evaluation; type: in vivo, Oryza sativa, (L.) Tebonnet; conditions: rated 4-5 weeks after treatment; for ORYSAT rating: preemergence, 0-9 scale
How it was run: as §1

[2] = test system: ECHORC (Watergrass (Calif.)); experiment: Preemergence weed control under flooded paddy conditions; type: in vivo, Echinochloa oryzoides; conditions: rated 3-4 weeks after treatment
How it was run: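 Visual injury scored 0-9 against control three to four weeks post-treatment, greenhouse-grown. Application: acetone/water (50/50) solutions dosed directly into flood water (1.5-3 cm over silt loam, planted top 0.5 cm), roughly 0.0313 to 0.500 kg/ha active ingredient.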

CYPSE (Flatsedge) = experiment: as above; type: in vivo, Cyperus serotinus; conditions: rated 3-4 weeks after treatment
How it was run: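 Seeds or propagules sown in silt loam kept flooded 1.5-3 cm; compounds in 50/50 acetone/water pipetted into flood water at about 0.0313 to 0.500 kg/ha. Greenhouse; visual 0-9 rating versus untreated control 3-4 weeks after treatment.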

MOOVA (Monochoria) = experiment: Postemergence weed control under flooded paddy conditions; type: in vivo, Monochoria vaginalis; conditions: postemergence weeds
How it was run: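 Herbicidal effect is judged by eye on a 0–9 scale versus control, 3–4 weeks after dosing. Dosing is into flood water kept 1.5–3 cm over the soil, at about 0.0313–0.500 kg/ha in aqueous/acetone 50/50 v/v, on 3–5 cm weeds and 1.5–2.5-leaf rice seedlings.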

[3] = rate 0.0313 kg/ha, 3-4 weeks after treatment
[4] = rate 0.0625 kg/ha, 3-4 weeks after treatment
[5] = rate 0.1250 kg/ha, 3-4 weeks after treatment
[6] = rate 0.2500 kg/ha, 3-4 weeks after treatment
[7] = Rate 0.0313 kg/ha, rated 3 to 4 weeks after treatment
[8] = Rate 0.0625 kg/ha, rated 3 to 4 weeks after treatment
[9] = Rate 0.1250 kg/ha, rated 3 to 4 weeks after treatment
[10] = Rate 0.2500 kg/ha, rated 3 to 4 weeks after treatment

SMILES: C=CCN1C(=O)CSC1=Nc1cc(-n2c(=O)cc(C(F)(F)F)n(C)c2=O)c(F)cc1Cl [Compound 27]
- ECHCG herbicidal rating (ECHCG (Barnyardgrass); rate 0.0158 kg/ha): 2.0
- ECHCG herbicidal rating (ECHCG (Barnyardgrass); rate 0.0315 kg/ha): 2.0
- ECHCG herbicidal rating (ECHCG (Barnyardgrass); rate 0.0630 kg/ha): 1.0
- Preemergence herbicidal rating CHEAL ([1]; rate 0.0156 kg/ha): 0.0
- Preemergence herbicidal rating CHEAL ([1]; rate 0.0313 kg/ha): 9.0
- Preemergence herbicidal rating CHEAL ([1]; rate 0.0625 kg/ha): 9.0
- Preemergence herbicidal rating CHEAL ([1]; rate 0.1250 kg/ha): 9.0
- Preemergence herbicidal rating CHEAL ([1]; rate 0.2500 kg/ha): 9.0
- Preemergence herbicidal rating ORYSAT (ORYSAT (Rice, Tebonnet); rate 0.0156 kg/ha): 0.0
- Preemergence herbicidal rating ORYSAT (ORYSAT (Rice, Tebonnet); rate 0.0313 kg/ha): 0.0
- Preemergence herbicidal rating ORYSAT (ORYSAT (Rice, Tebonnet); rate 0.0625 kg/ha): 3.0
- Preemergence herbicidal rating ORYSAT (ORYSAT (Rice, Tebonnet); rate 0.1250 kg/ha): 3.0
- Preemergence herbicidal rating ORYSAT (ORYSAT (Rice, Tebonnet); rate 0.2500 kg/ha): 8.0
- Herbicidal rating ECHORC ([2]; 0.0313 kg/ha): 6.0
- Herbicidal rating ECHORC ([2]; 0.0625 kg/ha): 7.0
- Herbicidal rating ECHORC ([2]; 0.1250 kg/ha): 9.0
- Herbicidal rating ECHORC ([2]; 0.2500 kg/ha): 9.0
- Herbicidal rating CYPSE (CYPSE (Flatsedge); 0.0313 kg/ha): 0.0
- Herbicidal rating CYPSE (CYPSE (Flatsedge); 0.0625 kg/ha): 0.0
- Herbicidal rating CYPSE (CYPSE (Flatsedge); 0.1250 kg/ha): 0.0
- Herbicidal rating CYPSE (CYPSE (Flatsedge); 0.2500 kg/ha): 9.0
- Herbicidal rating MOOVA (MOOVA (Monochoria); [3]): 9.0
- Herbicidal rating MOOVA (MOOVA (Monochoria); [4]): 9.0
- Herbicidal rating MOOVA (MOOVA (Monochoria); [5]): 9.0
- Herbicidal rating MOOVA (MOOVA (Monochoria); [6]): 9.0

SMILES: CCOC(=O)CN1C(=O)C(CC(=O)OC(C)C)SC1=Nc1cc(-n2c(=O)cc(C(F)(F)F)n(C)c2=O)c(F)cc1Cl (stereo not shown) [Compound 60, 2-{{2-Chloro-5-[3,6-dihydro-3-methyl-2,6-dioxo-4-(trifluoromethyl)-1(2H)-pyrimidinyl]-4-fluoro-phenyl}imino}-4-oxo-3,5-thiazolidinediacetic acid, 3-ethyl isopropyl ester]
- Postemergence herbicidal rating ECHCG (ECHCG (Barnyardgrass); Rate 0.0158 kg/ha): 0.0
- Postemergence herbicidal rating ECHCG (ECHCG (Barnyardgrass); Rate 0.0315 kg/ha): 0.0
- Postemergence herbicidal rating ECHCG (ECHCG (Barnyardgrass); Rate 0.0630 kg/ha): 0.0
- Preemergence herbicidal rating CHEAL ([1]; rate 0.0156 kg/ha): 9.0
- Preemergence herbicidal rating CHEAL ([1]; rate 0.0313 kg/ha): 8.0
- Preemergence herbicidal rating CHEAL ([1]; rate 0.0625 kg/ha): 9.0
- Preemergence herbicidal rating CHEAL ([1]; rate 0.1250 kg/ha): 9.0
- Preemergence herbicidal rating CHEAL ([1]; rate 0.2500 kg/ha): 9.0
- Preemergence herbicidal rating CHEAL ([1]; rate 0.5000 kg/ha): 9.0
- Preemergence herbicidal rating ORYSAT (ORYSAT (Rice, Tebonnet); rate 0.0156 kg/ha): 0.0
- Preemergence herbicidal rating ORYSAT (ORYSAT (Rice, Tebonnet); rate 0.0313 kg/ha): 0.0
- Preemergence herbicidal rating ORYSAT (ORYSAT (Rice, Tebonnet); rate 0.0625 kg/ha): 0.0
- Preemergence herbicidal rating ORYSAT (ORYSAT (Rice, Tebonnet); rate 0.1250 kg/ha): 0.5
- Preemergence herbicidal rating ORYSAT (ORYSAT (Rice, Tebonnet); rate 0.2500 kg/ha): 2.0
- Preemergence herbicidal rating ORYSAT (ORYSAT (Rice, Tebonnet); rate 0.5000 kg/ha): 7.0
- ECHORC herbicidal effect rating ([2]; 0.0313 kg/ha): 7.0
- ECHORC herbicidal effect rating ([2]; 0.0625 kg/ha): 9.0
- ECHORC herbicidal effect rating ([2]; 0.1250 kg/ha): 9.0
- ECHORC herbicidal effect rating ([2]; 0.2500 kg/ha): 9.0
- CYPSE herbicidal effect rating (CYPSE (Flatsedge); 0.0313 kg/ha): 2.0
- CYPSE herbicidal effect rating (CYPSE (Flatsedge); 0.0625 kg/ha): 2.0
- CYPSE herbicidal effect rating (CYPSE (Flatsedge); 0.1250 kg/ha): 4.0
- CYPSE herbicidal effect rating (CYPSE (Flatsedge); 0.2500 kg/ha): 4.0
- Herbicidal rating MOOVA (MOOVA (Monochoria); [7]): 9.0
- Herbicidal rating MOOVA (MOOVA (Monochoria); [8]): 9.0
- Herbicidal rating MOOVA (MOOVA (Monochoria); [9]): 9.0
- Herbicidal rating MOOVA (MOOVA (Monochoria); [10]): 9.0

SMILES: CCC1SC(=Nc2cc(-n3c(=O)cc(C(F)(F)F)n(C)c3=O)c(F)cc2Cl)N(C)C1=O (stereo not shown) [Compound 10]
- ECHCG herbicidal rating (ECHCG (Barnyardgrass); rate 0.0156 kg/ha): 0.0
- ECHCG herbicidal rating (ECHCG (Barnyardgrass); rate 0.0313 kg/ha): 0.0
- ECHCG herbicidal rating (ECHCG (Barnyardgrass); rate 0.0625 kg/ha): 0.0
- ECHCG herbicidal rating (ECHCG (Barnyardgrass); rate 0.1250 kg/ha): 1.0
- CHEAL preemergence herbicidal rating ([1]; rate 0.0156 kg/ha): 9.0
- CHEAL preemergence herbicidal rating ([1]; rate 0.0313 kg/ha): 9.0
- CHEAL preemergence herbicidal rating ([1]; rate 0.0625 kg/ha): 9.0
- CHEAL preemergence herbicidal rating ([1]; rate 0.1250 kg/ha): 9.0
- CHEAL preemergence herbicidal rating ([1]; rate 0.2500 kg/ha): 9.0
- ORYSAT preemergence herbicidal rating (ORYSAT (Rice, Tebonnet); rate 0.0156 kg/ha): 1.0
- ORYSAT preemergence herbicidal rating (ORYSAT (Rice, Tebonnet); rate 0.0313 kg/ha): 3.0
- ORYSAT preemergence herbicidal rating (ORYSAT (Rice, Tebonnet); rate 0.0625 kg/ha): 4.5
- ORYSAT preemergence herbicidal rating (ORYSAT (Rice, Tebonnet); rate 0.1250 kg/ha): 6.5
- ORYSAT preemergence herbicidal rating (ORYSAT (Rice, Tebonnet); rate 0.2500 kg/ha): 7.5
- Herbicidal rating ECHORC ([2]; 0.0313 kg/ha): 0.0
- Herbicidal rating ECHORC ([2]; 0.0625 kg/ha): 1.0
- Herbicidal rating ECHORC ([2]; 0.1250 kg/ha): 2.0
- Herbicidal rating ECHORC ([2]; 0.2500 kg/ha): 2.0
- Herbicidal rating CYPSE (CYPSE (Flatsedge); 0.0313 kg/ha): 0.0
- Herbicidal rating CYPSE (CYPSE (Flatsedge); 0.0625 kg/ha): 0.0
- Herbicidal rating CYPSE (CYPSE (Flatsedge); 0.1250 kg/ha): 0.0
- Herbicidal rating CYPSE (CYPSE (Flatsedge); 0.2500 kg/ha): 0.0
- Herbicidal rating MOOVA (MOOVA (Monochoria); [3]): 9.0
- Herbicidal rating MOOVA (MOOVA (Monochoria); [4]): 9.0
- Herbicidal rating MOOVA (MOOVA (Monochoria); [5]): 9.0
- Herbicidal rating MOOVA (MOOVA (Monochoria); [6]): 9.0

SMILES: COC(=O)CC1SC(=Nc2cc(-n3c(=O)cc(C(F)(F)F)n(C)c3=O)c(F)cc2Cl)N(C)C1=O (stereo not shown) [Compound 88, Methyl 2-{{2-chloro-5-[3,6-dihydro-3-methyl-2,6-dioxo-4-(trifluoromethyl)-1(2H)-pyrimidinyl]-4-fluorophenyl}imino}-3-methyl-4-oxo-5-thiazolidineacetate]
- ECHCG herbicidal rating (ECHCG (Barnyardgrass); rate 0.0158 kg/ha): 1.0
- ECHCG herbicidal rating (ECHCG (Barnyardgrass); rate 0.0315 kg/ha): 7.0
- ECHCG herbicidal rating (ECHCG (Barnyardgrass); rate 0.0630 kg/ha): 7.0
- CHEAL rating ([1]; 0.0156 kg/ha): 7.0
- CHEAL rating ([1]; 0.0313 kg/ha): 9.0
- CHEAL rating ([1]; 0.0625 kg/ha): 9.0
- CHEAL rating ([1]; 0.1250 kg/ha): 9.0
- CHEAL rating ([1]; 0.2500 kg/ha): 9.0
- ORYSAT rating (ORYSAT (Rice, Tebonnet); 0.0156 kg/ha): 0.0
- ORYSAT rating (ORYSAT (Rice, Tebonnet); 0.0313 kg/ha): 0.0
- ORYSAT rating (ORYSAT (Rice, Tebonnet); 0.0625 kg/ha): 0.0
- ORYSAT rating (ORYSAT (Rice, Tebonnet); 0.1250 kg/ha): 2.0
- ORYSAT rating (ORYSAT (Rice, Tebonnet); 0.2500 kg/ha): 7.0
- ECHORC herbicidal effect rating ([2]; 0.0313 kg/ha): 6.0
- ECHORC herbicidal effect rating ([2]; 0.0625 kg/ha): 6.0
- ECHORC herbicidal effect rating ([2]; 0.1250 kg/ha): 6.0
- ECHORC herbicidal effect rating ([2]; 0.2500 kg/ha): 7.0
- CYPSE herbicidal effect rating (CYPSE (Flatsedge); 0.0313 kg/ha): 3.0
- CYPSE herbicidal effect rating (CYPSE (Flatsedge); 0.0625 kg/ha): 5.0
- CYPSE herbicidal effect rating (CYPSE (Flatsedge); 0.1250 kg/ha): 7.0
- CYPSE herbicidal effect rating (CYPSE (Flatsedge); 0.2500 kg/ha): 7.0
- Herbicidal rating MOOVA (MOOVA (Monochoria); [7]): 9.0
- Herbicidal rating MOOVA (MOOVA (Monochoria); [8]): 9.0
- Herbicidal rating MOOVA (MOOVA (Monochoria); [9]): 9.0
- Herbicidal rating MOOVA (MOOVA (Monochoria); [10]): 9.0
